Read-outs that look alike come from different tables or passages of the source. Non-standard residues stand in square brackets, D forms with d. Residues, ends and D or L forms follow the SMILES beside them. *: point of attachment. Hyp = O=C(O)[C@@H]1C[C@@H](O)CN1; d2Thi = N[C@H](Cc1cccs1)C(=O)O; Pip = O=C(O)[C@@H]1CCCCN1; Aze = O=C(O)[C@@H]1CCN1; For = O=C*
Key:
ETB = ETB radio receptor assay *2, 125I-endothelin-1, guinea pig kidney crude membrane fraction; format: binding, Guinea pigs; settings: relative activity, 37 °C, 90 minutes
Method: ETB Radio Receptor Assay *2
In the endothelin radio receptor assay, guinea pigs' kidneys were used. Guinea pigs (Std Hartrey, male 250 g, Japan SLC Ltd.) were made to have a cerebral concussion and sacrificed by bleeding from carotid arteries to pick up the kidneys and removed fat therefrom to prepare the kidneys. The obtained kidneys were sliced and homogenized by politron homogenizer in 20 ml of 50 mM Tris-HCl buffer [pH 7.4; 20 mM NaHCO3, 0.1 mM PMSF (Phenylmethylsulfonyl Fluoride), 1 mM EDTA (Ethylenediaminetetraacetic acid)] per one kidney. The homogenized kidney was applied to a centrifugation at 1,000 x g for 15 minutes and the supernatant was further applied to a centrifugation for 20 minutes at 30,000 x g. The resulting precipitate was twice washed with 50 mM Tris-HCl buffer (pH 7.4) containing 0.1 mM PMSF, 1 mM EDTA. The resultant was stored at -80 °C as a crude receptor membrane fraction and was used as the suspension in the following buffer when necessary.
740 Bq of ^125I-endothelin-1 (81.4 TBq/mmol, Du Pont, USA) as a radio ligand, the crude membrane fraction (2.1 µg protein) and samples were added to the following buffer. The reaction was performed at 37 °C, for 90 minutes in 0.2 ml of the buffer [50 mM Tris-HCl buffer (pH 7.4) containing 0.1 mM PMSF, 1 mM EDTA, 0.2% bovine serum albumin].
The reaction was stopped by fast filtration on a glass filter (GF/B, Wattman, USA) by Cell Harvestor (290 PHD, Cambridge-Technology, Great Britain), and the filter was three times washed with 50 mM Tris-HCl buffer (pH 7.4). Radio activity remained on the filter was assayed by a gamma counter.

[1] = target: T1, endothelin receptor A (ETA) (Sus scrofa, UniProt Q29010); experiment: Assay of affinity for receptor (1): binding activity on ETA receptor, 125I-labeled endothelin-1, porcine heart membrane fraction; design: key: relative specific activity; reference cyclic pentapeptide ETA binding = 1.0; settings: specific activity, taking the binding activity of control cyclo[-D-Glu-Ala-D-aIle-Leu-D-Trp-] on receptor A as 1.0, 25°C, 1 hour
T1 construct: A membrane fraction prepared from the porcine heart; from tissue; host or cells: porcine heart membrane fraction
T1 sequence (Q29010 21-427): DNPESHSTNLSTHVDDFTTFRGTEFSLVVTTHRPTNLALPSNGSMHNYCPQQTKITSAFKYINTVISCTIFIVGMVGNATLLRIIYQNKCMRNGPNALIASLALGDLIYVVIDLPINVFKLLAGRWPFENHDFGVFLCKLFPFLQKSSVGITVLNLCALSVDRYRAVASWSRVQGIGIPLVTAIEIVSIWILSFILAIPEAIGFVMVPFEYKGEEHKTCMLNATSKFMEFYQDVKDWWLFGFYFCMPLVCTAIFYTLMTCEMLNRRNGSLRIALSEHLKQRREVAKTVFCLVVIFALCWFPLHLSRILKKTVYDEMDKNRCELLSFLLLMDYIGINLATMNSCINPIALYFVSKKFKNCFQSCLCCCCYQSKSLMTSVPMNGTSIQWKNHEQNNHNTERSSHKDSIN
Method: Assay of Affinity for Receptor (1) ... Binding Activity on ETA Receptor
A membrane fraction prepared from the porcine heart was diluted to 0.15 mg/ml by using a buffer solution for assay, and 100 µl of the resulting suspension of the membrane fraction was poured into each assay tube to use for assay. To this suspension of the membrane fraction was added 2 µl of 5 nM ^125I-labeled endothelin-1 solution. Further, 3 µl of a test peptide solution was added thereto, followed by incubation at a temperature of 25°C for 1 hour. Then, the resulting suspension was diluted with 900 µl of the buffer solution for assay cooled with ice, and thereafter separated into a supernatant and a precipitate by centrifugation at 12,000 X g for 10 minutes. Cell membranes and an endothelin receptor A (ETA) embedded therein were contained in the precipitate, and radioactive iodine-labeled endothelin combined with the receptor was also recovered in the precipitate. Accordingly, the amount of radioactive iodine-labeled endothelin combined with the endothelin receptor A (ETA) was determined by measuring the amount of radioactive iodine contained in the precipitate with a gamma-ray counter. The cyclic pentapeptide described in Japanese Patent Application No. 2-413328/1990, cyclo[-D-Glu-Ala-D-aIle-Leu-D-Trp-], was used as a control compound. The numerical value of ETA shown in Table 1 is the value of specific activity, taking the binding activity of this cyclic pentapeptide on the receptor A as 1.0. The binding activity (IC50) of this cyclic pentapeptide on the ETA receptor is 2x10^-6 M.

[2] = target: T2, endothelin receptor B (ETB) (Bos taurus, UniProt P28088); experiment: Assay of affinity for receptor (2): binding activity on ETB receptor *1, 125I-labeled endothelin-1, bovine brain membrane fraction; settings: specific activity, taking the binding activity of the compound of Example 8 on receptor B as 100, 25°C, 1 hour
T2 construct: A membrane fraction prepared from the bovine brain; from tissue; host or cells: bovine brain membrane fraction
T2 sequence (P28088 27-441): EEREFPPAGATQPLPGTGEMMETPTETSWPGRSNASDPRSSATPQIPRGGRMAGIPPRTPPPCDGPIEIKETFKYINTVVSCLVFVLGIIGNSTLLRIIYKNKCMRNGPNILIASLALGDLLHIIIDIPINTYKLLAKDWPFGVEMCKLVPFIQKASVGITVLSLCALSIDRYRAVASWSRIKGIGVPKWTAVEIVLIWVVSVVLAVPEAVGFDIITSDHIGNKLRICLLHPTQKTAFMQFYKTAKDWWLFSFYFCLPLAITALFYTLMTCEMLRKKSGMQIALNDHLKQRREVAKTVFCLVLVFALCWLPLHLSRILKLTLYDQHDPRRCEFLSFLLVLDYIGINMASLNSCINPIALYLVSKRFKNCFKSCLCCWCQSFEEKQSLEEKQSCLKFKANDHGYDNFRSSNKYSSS
Method: Assay of Affinity for Receptor (2) ... Binding Activity on ETB Receptor *1
A membrane fraction prepared from the bovine brain was diluted to 0.15 mg/ml by using a buffer solution for assay, and 100 µl of the resulting suspension of the membrane fraction was poured into each assay tube to use for assay. To this suspension of the membrane fraction was added 2 µl of 5 nM ^125I labeled endothelin-1 solution. Further, 3 µl of a test peptide solution was added thereto, followed by incubation at a temperature of 25°C for 1 hour. Then, the resulting suspension was diluted with 900 µl of the buffer solution for assay cooled with ice, and thereafter separated into a supernatant and a precipitate by centrifugation at 12,000 X g for 10 minutes. Cell membranes and an endothelin receptor B (ETB) embedded therein were contained in the precipitate, and radioactive iodine-labeled endothelin bound to the receptor was also recovered in the precipitate. Accordingly, the amount of radioactive iodine-labeled endothelin bound to the endothelin receptor B (ETB) was determined by measuring the amount of radioactive iodine contained in the precipitate with a gamma-ray counter. The numerical value of ETB shown in Table 1 is the value of specific activity, taking the binding activity of the compound of Example 8 on the receptor B as 100.

[3] = amide bond, 18-membered ring, DMF, 4 steps
[4] = HONB/DCC (preactivation), HCl/dioxane, TEA, 5.0 mM

Molecule | Binding Activity on ET Receptor (R. act.) ETB*2 (ETB) | Binding Activity on ET Receptor (R. act.) ETA [1] | Binding Activity on ET Receptor (R. act.) ETB*1 [2] | other results
CC(C)C[C@@H]1NC(=O)[C@@H](CC(C)C)NC(=O)[C@H](CC(=O)O)NC(=O)[C@H](C)NC(=O)[C@@H](CC(=O)O)NC(=O)[C@@H](Cc2c[nH]c3ccccc23)NC1=O [Example 1, cyclo[-D-Asp-Ala-Asp-D-Leu-Leu-D-Trp-]] (cyclo(AD[dL]L[dW][dD])) | 2.0 | 9.7 | 13 | –
CC(C)C[C@@H]1NC(=O)[C@@H](CC(C)C)NC(=O)[C@H](CC(=O)O)NC(=O)[C@@H]2CCCN2C(=O)[C@@H](CC(=O)O)NC(=O)[C@@H](Cc2c[nH]c3ccccc23)NC1=O [Example 9, cyclo[-D-Asp-Pro-Asp-D-Leu-Leu-D-Trp-]] (cyclo(D[dL]L[dW][dD]P)) | 67 | 56 | 140 | –
CC(C)C[C@@H]1NC(=O)[C@@H](CC(C)C)NC(=O)[C@H](CC(=O)O)NC(=O)[C@@H]2C[C@@H](O)CN2C(=O)[C@@H](CC(=O)O)NC(=O)[C@@H](Cc2c[nH]c3ccccc23)NC1=O [Example 14, cyclo[-D-Asp-Hyp-Asp-D-Leu-Leu-D-Trp-]] (cyclo(D[dL]L[dW][dD][Hyp])) | 120 | 70 | 160 | –
CC(C)C[C@@H]1NC(=O)[C@@H](CC(C)C)NC(=O)[C@H](CC(=O)O)NC(=O)[C@H](CC(=O)O)NC(=O)[C@@H](CC(=O)O)NC(=O)[C@@H](Cc2c[nH]c3ccccc23)NC1=O [Example 16, Cyclo[-D-Asp-Asp-Asp-D-Leu-Leu-D-Trp-]] (cyclo(DD[dL]L[dW][dD])) | 34 | 10 | 14 | –
CC(C)C[C@@H]1NC(=O)[C@@H](CC(C)C)NC(=O)[C@H](CC(=O)O)NC(=O)[C@H](Cc2cn(C=O)c3ccccc23)NC(=O)[C@@H](CC(=O)O)NC(=O)[C@@H](Cc2c[nH]c3ccccc23)NC1=O [Example 22, Cyclo[-D-Asp-Trp(For)-Asp-D-Leu-Leu-D-Trp-]] (cyclo(D[dL]L[dW][dD]W(For))) | 15 | 8.3 | 6.7 | –
CC(C)C[C@@H]1NC(=O)[C@@H](CC(C)C)NC(=O)[C@H](CC(=O)O)NC(=O)[C@@H]2CCN2C(=O)[C@@H](CC(=O)O)NC(=O)[C@@H](Cc2c[nH]c3ccccc23)NC1=O [Example 25, Cyclo[-D-Asp-Azc-Asp-D-Leu-Leu-D-Trp-]] (cyclo([Aze]D[dL]L[dW][dD])) | 57 | 30 | 25 | –
CC(C)C[C@@H]1NC(=O)[C@@H](CC(C)C)NC(=O)[C@H](CC(=O)O)NC(=O)[C@@H]2CCCCN2C(=O)[C@@H](CC(=O)O)NC(=O)[C@@H](Cc2c[nH]c3ccccc23)NC1=O [Example 26, Cyclo[-D-Asp-Pip-Asp-D-Leu-Leu-D-Trp-]] (cyclo(D[dL]L[dW][dD][Pip])) | 73 | 25 | 38 | –
CC(C)C[C@@H]1NC(=O)[C@@H](Cc2cccs2)NC(=O)[C@H](CC(=O)O)NC(=O)[C@H](Cc2c[nH]c3ccccc23)NC(=O)[C@@H](CC(=O)O)NC(=O)[C@@H](Cc2c[nH]c3ccccc23)NC1=O [Example 50, Cyclo[-D-Asp-Trp-Asp-D-Thi-Leu-D-Trp-]] (cyclo(D[d2Thi]L[dW][dD]W)) | 57 | 4 | 350 | –
CC(C)C[C@@H]1NC(=O)[C@@H](C(C)C)NC(=O)[C@H](CC(=O)O)NC(=O)[C@H](Cc2c[nH]c3ccccc23)NC(=O)[C@@H](CC(=O)O)NC(=O)[C@@H](Cc2c[nH]c3ccccc23)NC1=O [Example 52, Cyclo[-D-Asp-Trp-Asp-D-Val-Leu-D-Trp-]] (cyclo(D[dV]L[dW][dD]W)) | 100 | 75 | 240 | –
CC(C)C[C@H]1NC(=O)[C@H](CC(=O)O)NC(=O)[C@H](C)NC(=O)[C@@H](CC(=O)O)NC(=O)[C@@H](Cc2c[nH]c3ccccc23)NC(=O)[C@H](Cc2c[nH]c3ccccc23)NC1=O [Example 58, Cyclo[-D-Asp-Ala-Asp-D-Leu-Trp-D-Trp-]] (cyclo(AD[dL]W[dW][dD])) | 22 | 0.7 | 6.7 | –
cyclo[-D-Asp-Pro-Asp-D-Leu-Leu-D-Trp-] | – | – | – | ring closure, yield after HPLC ([3]; HONB ester (HONB/DCC preactivation)/TEA, 5.1 mM): 47.4%
cyclo[-D-Asp-Trp-Asp-D-Leu-Leu-D-Trp-] | – | – | – | ring closure, yield after HPLC ([3]; HONB ester (HONB/DCC preactivation)/TEA, 5.0 mM): 52.9%
cyclo[-D-Asp-Trp-Asp-D-Thg(2)-Leu-D-Trp-] | – | – | – | ring closure, yield after HPLC ([3]; HONB/DCC (preactivation), HCl/dioxane, TEA, 5.1 mM): 4.6%
cyclo[-D-Asp-Trp-Asp-D-tLeu-Leu-D-Trp-] | – | – | – | ring closure, yield after HPLC [3, 4]: 42.8%
cyclo[-D-Asp-Trp-Asp-D-γMeLeu-Leu-D-Trp-] | – | – | – | ring closure, yield after HPLC [3, 4]: 51.5%
